# Results reported in patent US20260217691A1, “FOXM1 INHIBITORS AND THEIR USE IN TREATING CANCERS” (THE BOARD OF TRUSTEES OF THE UNIVERSITY OF ILLINOIS, priority 2022, published 2026).
# Key:
# FOXM1 [1] = molecular target: T1, FOXM1 (Homo sapiens, UniProt Q08050); experiment: FOXM1 protein levels by immunoblotting in solid cancer cell lines
# T1 sequence (Q08050 1-763): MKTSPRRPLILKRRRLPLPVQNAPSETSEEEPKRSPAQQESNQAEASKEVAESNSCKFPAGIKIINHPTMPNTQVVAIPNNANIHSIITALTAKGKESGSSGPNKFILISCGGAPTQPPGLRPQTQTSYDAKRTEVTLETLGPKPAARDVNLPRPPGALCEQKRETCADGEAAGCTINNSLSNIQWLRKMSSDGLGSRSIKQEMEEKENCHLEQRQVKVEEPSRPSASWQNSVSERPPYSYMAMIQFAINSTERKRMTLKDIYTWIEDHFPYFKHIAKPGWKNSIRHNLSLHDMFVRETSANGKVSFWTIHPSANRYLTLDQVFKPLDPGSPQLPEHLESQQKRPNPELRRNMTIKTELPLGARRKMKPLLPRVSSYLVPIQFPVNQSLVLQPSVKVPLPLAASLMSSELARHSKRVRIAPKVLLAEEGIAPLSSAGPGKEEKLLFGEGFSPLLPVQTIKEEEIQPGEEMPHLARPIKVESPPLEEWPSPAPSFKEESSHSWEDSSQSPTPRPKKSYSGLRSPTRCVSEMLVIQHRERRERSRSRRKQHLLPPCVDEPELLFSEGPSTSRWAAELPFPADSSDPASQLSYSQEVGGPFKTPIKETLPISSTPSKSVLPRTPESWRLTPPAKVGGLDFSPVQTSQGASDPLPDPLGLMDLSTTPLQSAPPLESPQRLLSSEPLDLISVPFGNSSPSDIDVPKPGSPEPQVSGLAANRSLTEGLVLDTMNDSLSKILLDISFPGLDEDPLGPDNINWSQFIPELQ
# Protocol: Cell culture: Human cell lines LNCaP and 22Rv1 (human prostate carcinoma), OVCAR8 and ES-2 (High-grade serous ovarian cancer, HGSOC), HCT-116 and HCT-FET (human colorectal carcinoma), HCC-1143 (triple negative breast cancer (TNBC), TAMR (Tamoxifen resistant MCF7) human breast cancer, were provided from various investigators. LNCaP and 22Rv1 cell lines were cultured in RPMI-1640 with 2 mM L-Glutamine (Gibco; Thermo Fisher Scientific, Waltham, MA, USA). HCC-1143 cell lines were cultured in Iscove's Modified Dulbecco Medium (IMDM) with 2 mM L-Glutamine (Gibco; Thermo Fisher Scientific). OVCAR-8, ES-2, HCT-116, and HCT-FET cell lines were cultured in Dulbecco's Modified Eagle Medium (DMEM) with 4.5 g/L glucose and 4 mM L-Glutamine (Gibco; Thermo Fisher Scientific). For all cell lines, the growth media was supplemented with 10% Foetal Bovine Serum (FBS), penicillin (100 U/mL), and 100 μg/mL streptomycin (Gibco; Thermo Fisher Scientific). TAMR cells were routinely cultured in DMEM/F12 medium without phenol red (Gibco; Thermo Fisher Scientific), containing 1% charcoal-striped FBS, 2.5 mM L-Glutamine (Thermo Fisher Scientific), 6 ng/mL insulin (Millipore Sigma) and 50 nM 4-hydroxytamoxifen (4-OHT; Millipore Sigma). All cell lines were grown and maintained at 37° C. in a humidified incubator with 5% CO2. Sub-confluent cultures (70-80%) were split 1:5 using 0.25% Trypsin/EDTA (Millipore Sigma).
# Drug treatment of cultured cells: After harvesting, cells were counted in presence of Trypan Blue (Thermo Fisher Scientific) and seeded onto tissue culture plates to achieve ~50% confluency. The next day, treatment of cells was performed by aspirating the nonadherent cells and growth medium and replacing it with the fresh one containing selected concentrations of drugs. For Tamoxifen based studies, the nonadherent cells and growth media was aspirated and replaced with the DMEM supplemented with 4.5 g/L glucose and 4 mM L-Glutamine, 10% FBS, penicillin (100 U/mL), 100 μg/mL streptomycin, 10 nM estrogen, and selected concentrations of drugs. […] Post-treatment at selected times, the cells were harvested, washed with ice-cold PBS and used for protein or RNA purification as described below.
# Protein immunoblotting: Total protein was extracted using ice-cold radio-immunoprecipitation assay (RIPA) buffer (Millipore Sigma) supplemented with Halt protease- and phosphatise-inhibitor cocktails (Fisher Scientific), 2 mM sodium orthovanadate (New England Biolabs, Inc., USA), and 5 mM sodium fluoride (Millipore Sigma) according to the manufacturer's protocol. Protein content in each sample was estimated using Bio-Rad Protein Assay (Bio-Rad, USA). Equal amounts of protein (20-30 μg) were separated on hand-cast SDS/PAGE (6-12%) mini-protein gels and transferred to 0.2 μm Immobilon-Psq polyvinylidene difluoride (PVDF) transfer membrane (Millipore Sigma). Membranes were blocked with 4% bovine serum albumin (BSA; Millipore Sigma) in TRIS-buffered saline (TBS) with 0.1% Tween-20 (TBS-T, Thermo Fisher Scientific) and probed overnight at 4° C. with the primary antibodies (FOXM1, Cell Signaling Technology (CST), Inc., USA; Cleaved Caspase-3, CST; β-actin, Thermo Fisher Scientific) diluted according to the manufacturer's protocol. […] After incubating membranes with the secondary antibodies, the membranes were then washed three times for 10 min each with TBST. Protein bands were developed using SuperSignal™ West Pico PLUS Chemiluminescent Substrate (Thermo Fisher Scientific) and detected using ChemiDoc Imaging System (Bio-Rad).
# OVCAR-8, ES-2 cells = experiment: Chemosensitization (caspase-3 cleavage) of ovarian cancer cells to doxorubicin; format: cell-based, human
# Protocol: FIG. 16. […] (A) Ovarian cancer (OVCAR-8 and ES-2) cells were treated with indicated concentrations of Doxorubicin (Doxo) alone or in combination with STL001 for 24 hrs. […] (C) colon cancer (HCT-116 and FET) cells were treated with indicated concentrations of 5′FU alone or in combination with STL001 for 24 hrs.
# FOXM1 [2] = molecular target: T1, FOXM1; experiment: FOXM1 protein levels by immunoblotting in leukemia/AML cell lines; format: cell-based; design: Total protein samples obtain from treated cells were analyzed for FOXM1 protein levels via immunoblotting; endogenous in cells; host or cells: KG-1, HL-60, K562, THP-1 leukemia cell lines
# Protocol: [a] Leukemia cells, KG-1, HL-60 and K562 were treated with increasing concentrations of STL427944 for 24 hrs. […] [b] THP1 and KG-1 cells were treated with indicated concentrations of venetoclax and STL427944 alone or in combination for 24 hrs. [c] KG-1 and K562 cells were treated with indicated concentrations of cytarabine and STL427944 alone or in combination for 24 hrs.
# FIG. 8. STL427944 treatment of human leukemia cell lines suppress FOXM1 protein expression. (a) STL427944 treatment of human leukemia cell lines inhibit FOXM1 protein expression and sensitize cells to venetoclax treatment. […] (b) Stable shRNA-mediated FOXM1 knockdown prominently sensitizes KG-1 cells to cytotoxic effect of venetoclax. (c, d) combined treatment with STL427944 and venetoclax suppresses FOXM1 in KG-1 and THP-1 cells and synergistically promotes cytotoxic effects similarly to FOXM1 knockdown. Total protein was isolated from cells immediately after the treatment and analyzed via immunoblotting with FOXM1 antibodies). Apoptosis induction was estimated based on caspase-3 cleavage.
# FIGS. 9A and 9B: Novel FOXM1 inhibitor STL001 sensitizes Leukemia cells to chemotherapy agents. [a] Structural formula of novel FOXM1 inhibitor STL001. [b] Leukemia cells, KG-1, HL-60, and K562 were treated with increasing concentrations of STL001 for 24 hrs. […] [c] KG-1 cells were treated with indicated concentrations of Laptomycin B, Chloroquine, and STL001 for 24 hrs. […] [d] KG-1, HL-60, and K562 cells were treated with indicated concentrations of venetoclax and STL001 alone or in combination for 24 hrs. [e] KG-1, HL-60, and K562 cells were treated with indicated concentrations of cytarabine and STL alone or in combination for 24 hrs.
# FIGS. 13A-13H STL001 is a novel FOXM1 inhibitor that sensitizes leukemia cells to standard cytotoxic and bcl2 inhibitor therapies. FIG. 13A AML cell line KG-1 treated with precursor compound STL427944. FIG. 3B AML cell lines KG-1, HL-60, and K562 were treated with increasing concentrations of STL001 for 24 h. Total protein samples obtained from treated cells were analyzed for FOXM1 protein levels using immunoblotting; β-actin was used as the internal loading control. FIG. 13C KG-1, HL-60, and K562 cells were treated with indicated concentrations of venetoclax and STL001 alone or in combination for 24 h. FIG. 13D KG-1, HL-60, and K562 cells were treated with indicated concentrations of cytarabine and STL001 alone or in combination for 24 h. […] FIG. 13E KG-1 cells were treated with indicated concentrations of Leptomycin B, Chloroquine, and STL001 for 24 h. Total protein samples obtained from treated cells were analyzed for FOXM1 protein levels via immunoblotting; β-actin was used as an internal loading control. FIG. 13F KG-1 cell lines with shRNA knockdown of FOXM1 were treated with venetoclax and STL001 and compared to parental cells. FIG. 13G Real-time PCR-based expression profiling for canonical FOXM1 target genes was performed on primary AML mononuclear cells (n=5) treated ex vivo with STL001 5 μM for 24 h. Mean and standard error of the delta Ct for DMSO or treatment group are plotted for each gene. P-value is estimated by two-tailed paired t-test. Asterisks denote P<0.05. FIG. 13H Treatment of peripheral blood mononuclear cells with STL001 for 24 h followed by immunohistochemistry for FOXM1. Slides were scanned on an Aperio AT2 brightfield scanner and images were analyzed using HALO 2.0 software. Hematoxylin counterstain was used to segment nuclei within the ROIs and to establish an accurate cell count. Percent cells with nuclear FOXM1 expression compared between DMSO and STL001 treated cells. P-value is based on one-tailed paired t-test.
smiles,measurement,setting,value
O=C(Oc1cccc(-c2ccn(-c3nc(Nc4ccccc4)nc(N4CCOCC4)n3)n2)c1)c1ccco1 [STL001],FOXM1 level in combination with cisplatin or doxorubicin,FOXM1 [1]; HCC-1143,efficiently prevents cisplatin or doxorubicin chemotherapy induced FOXM1 upregulation
same,FOXM1 levels in combination with 5′FU,FOXM1 [1]; HCT-116 and HCT-FET,remarkably decreased 5′FU-induced FOXM1 levels
same,concentration giving reduction of cellular levels of FOXM1 protein,"FOXM1 [1]; OVCAR-8, ES-2, HCT-116, HCT-FET, TAM-R, HCC-1143, 22RV1, LNCaP, tested at 1, 5, 10 μM",1 µM
same,FOXM1 protein levels in combination with doxorubicin,"FOXM1 [1]; OVCAR-8, ES-2, 24 hrs",efficiently prevented FOXM1 activation
same,FOXM1 level in combination with tamoxifen,FOXM1 [1]; TAMR cells,efficiently prevents tamoxifen induced FOXM1 upregulation
same,FOXM1 expression,"FOXM1 [1]; breast, colorectal, esophageal and ovarian cancer cells",demonstrably lowers FOXM1 expression
same,efficiency in reducing cellular FOXM1 activity compared to STL427944,FOXM1 [1]; solid cancer cell lines,~ 25 times
same,cytotoxic effects as a single agent,"OVCAR-8, ES-2 cells",did not exert significant cytotoxic effects
same,apoptotic cell death (caspase-3 cleavage) in combination with doxorubicin,"OVCAR-8, ES-2 cells; 24 hrs",potent induction of apoptotic cell death
same,concentration suppressing FOXM1,FOXM1 [2]; AML cell lines,0.5 µM
same,FOXM1 localization,FOXM1 [2]; AML cells,localizes FOXM1 to the cytoplasm
same,lowest concentration with dose-dependent inhibition of FOXM1 protein expression,"FOXM1 [2]; KG-1, HL-60, K562, 24 h",500 nM
same,improvement in efficiency to suppress FOXM1 / increased potency as FOXM1 inhibitor versus STL427944,"FOXM1 [2]; estimated, relative to STL427944",up to 50 fold
same,FOXM1 protein levels,"FOXM1 [2]; leukemia cell lines, increasing concentrations, 24 h",dose-dependent inhibition of FOXM1 protein expression
